Test results as given in EPA's ToxRefDB 2.

Legend:
rat [1] = conditions: Subchronic oral toxicity in rodents, sprague dawley, Feed, dose end: 90 day
dog = conditions: Chronic toxicity, beagle, Oral, Capsule, dose end: 12 month, group: systemic
rat [2] = conditions: Prenatal developmental toxicity study, sprague dawley, Oral, Gavage/Intubation, dose end: 15 GD
rat [3] = conditions: Combined chronic toxicity/carcinogenicity, sprague dawley, Oral, Feed, dose end: 24 month, group: systemic
rat [4] = conditions: Multigenerational reproductive toxicity study, sprague dawley, Oral, Feed, dose end: 2 generation
rat [5] = conditions: Combined chronic toxicity/carcinogenicity, sprague dawley, Dermal, Topical, dose end: 24 month, group: systemic
rat [6] = conditions: Subchronic oral toxicity in rodents, sprague dawley, Feed, dose end: 14 week, group: systemic
rat [7] = conditions: Subchronic oral toxicity in rodents, fischer, Gavage/Intubation, dose end: 13 week, group: systemic
mouse = conditions: Subchronic oral toxicity in rodents, b6c3f1, Gavage/Intubation, dose end: 13 week, group: systemic
[8] = group: cholinesterase, cholinesterase / cholinesterase / cholinesterase / cholinesterase (che)
[9] = group: systemic, systemic / hematology / mean corpuscular (cell) volume (mcv) / mean corpuscular (cell) volume (mcv) + systemic / hematology / mean …
[10] = group: systemic, systemic / organ weight / thyroid gland / absolute
[11] = systemic / clinical chemistry / alkaline phosphatase (alp/alk) / alkaline phosphatase (alp/alk) + systemic / organ weight / liver / absolute…
[12] = group: developmental, developmental / developmental malformation / heart / [other] + developmental / developmental malformation / heart / defect a-v septum
[13] = group: developmental, developmental / developmental malformation / heart / [other] + developmental / developmental malformation / heart / defect a-v septum + …
[14] = group: maternal, reproductive / reproductive performance / resorptions / resorptions + reproductive / offspring survival early / litter size / litter size + …
[15] = systemic / pathology microscopic / kidney / nephropathy + systemic / hematology / hemoglobin (hgb) / hemoglobin (hgb) + systemic / …
[16] = group: offspring, developmental / offspring survival late / viability index / viability index + systemic / in life observation / body weight / offspring (pup…
[17] = group: parental, systemic / in life observation / body weight / body weight + systemic / in life observation / body weight / body weight gain + systemic / in…
[18] = group: reproductive, reproductive / offspring survival early / birth index / live birth index
[19] = systemic / pathology microscopic / skin / hyperkeratosis
[20] = systemic / pathology microscopic / skin / hyperkeratosis + systemic / pathology microscopic / skin / acanthosis + systemic / clinical …
[21] = systemic / in life observation / body weight / body weight + systemic / in life observation / body weight / body weight gain + systemic / …
[22] = systemic / clinical chemistry / urea nitrogen / urea nitrogen + systemic / hematology / neutrophils / neutrophils + systemic / in life …
[23] = systemic / in life observation / body weight / body weight + systemic / in life observation / body weight / body weight gain + systemic / in…
[24] = systemic / hematology / hemoglobin (hgb) / hemoglobin (hgb)
[25] = systemic / hematology / hemoglobin (hgb) / hemoglobin (hgb) + systemic / hematology / erythrocyte (rbc) count differential / erythrocyte (…

## C#CCN1C(=O)COc2cc(F)c(N3C(=O)C4=C(CCCC4)C3=O)cc21 [Flumioxazin]
Rat [1]; [8]
  LEL: 218 mg/kg/day
  LOAEL: > 218 mg/kg/day
  NEL: 72.9 mg/kg/day
  NOAEL: ≥ 218 mg/kg/day
Rat [1]; [9]
  LOAEL: 22.4 mg/kg/day
  NOAEL: 2.2 mg/kg/day
Rat [1]; [10]
  LEL: 1.9 mg/kg/day
  NEL: < 1.9 mg/kg/day
dog; [11]
  LOAEL: 1000 mg/kg/day
  NEL: 10 mg/kg/day
  NOAEL: 100 mg/kg/day
dog; systemic / organ weight / pituitary gland / absolute + systemic / organ weight / prostate / absolute + systemic / pathology microscopic / …
  LEL: 100 mg/kg/day
Rat [2]; [12]
  LEL: 10 mg/kg/day
  LOAEL: 10 mg/kg/day
Rat [2]; [13]
  NEL: 3 mg/kg/day
  NOAEL: 3 mg/kg/day
Rat [2]; group: maternal, reproductive / reproductive performance / resorptions / resorptions
  NEL: 10 mg/kg/day
Rat [2]; [14]
  LEL: 30 mg/kg/day
  LOAEL: > 30 mg/kg/day
  NOAEL: ≥ 30 mg/kg/day
Rat [3]; systemic / pathology microscopic / kidney / nephropathy
  LOAEL: 18 mg/kg/day
Rat [3]; systemic / pathology microscopic / kidney / nephropathy + systemic / hematology / hemoglobin (hgb) / hemoglobin (hgb) + systemic / pathology…
  LEL: 18 mg/kg/day
Rat [3]; [15]
  NEL: 1.8 mg/kg/day
  NOAEL: 1.8 mg/kg/day
Rat [4]; [16]
  LEL: 12.7 mg/kg/day
  NEL: 6.3 mg/kg/day
Rat [4]; group: offspring, systemic / in life observation / body weight / offspring (pup) weight
  LOAEL: 15.1 mg/kg/day
Rat [4]; group: offspring, systemic / in life observation / body weight / offspring (pup) weight + developmental / offspring survival late / lactation index / …
  NOAEL: 7.6 mg/kg/day
Rat [4]; group: parental, systemic / in life observation / body weight / body weight
  LOAEL: 12.7 mg/kg/day
Rat [4]; [17]
  NEL: 6.3 mg/kg/day
  NOAEL: 6.3 mg/kg/day
Rat [4]; group: parental, systemic / in life observation / body weight / body weight + systemic / organ weight / epididymis / absolute + systemic / organ weight / …
  LEL: 12.7 mg/kg/day
Rat [4]; [18]
  LEL: 12.7 mg/kg/day
  LOAEL: 12.7 mg/kg/day
  NEL: 6.3 mg/kg/day
  NOAEL: 6.3 mg/kg/day

## CCC(C)OC(=O)N1CCCCC1CCO (configuration not stated) [Icaridin]
Rat [5]; [19]
  LEL: 50 mg/kg/day
  NEL: < 50 mg/kg/day
Rat [5]; [20]
  LOAEL: > 200 mg/kg/day
  NOAEL: ≥ 200 mg/kg/day
Rat [6]; [21]
  LOAEL: 1030 mg/kg/day
  NEL: 100 mg/kg/day
  NOAEL: 301 mg/kg/day
Rat [6]; systemic / organ weight / kidney / relative to body weight + systemic / clinical chemistry / alanine aminotransferase (alt/sgpt) / alanine …
  LEL: 149 mg/kg/day

## O=C1OC(=O)c2c(Cl)c(Cl)c(Cl)c(Cl)c21 [Tetrachlorophthalic anhydride]
Rat [7]; [22]
  LOAEL: > 1500 mg/kg/day
  NOAEL: ≥ 1500 mg/kg/day
Rat [7]; [23]
  LEL: 94 mg/kg/day
  NEL: < 94 mg/kg/day
mouse; [24]
  LEL: 94 mg/kg/day
  NEL: < 94 mg/kg/day
mouse; [25]
  LOAEL: > 1500 mg/kg/day
  NOAEL: ≥ 1500 mg/kg/day
